# “Also recorded” adds a separate entry of the source. Read-outs that look alike come from different tables or passages of the source.
# T1: Dendroides canadensis antifreeze protein DAFP-1 (SEQ. ID 1, amino acid 28 through amino acid 108) (Dendroides canadensis, UniProt O46352)
# T1 construct: b42 prefers 28-108
# T1 sequence (O46352 26-108): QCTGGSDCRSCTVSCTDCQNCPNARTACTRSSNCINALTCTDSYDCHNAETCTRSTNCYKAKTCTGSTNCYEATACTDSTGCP
# Assays:
# [1] = tested on: DAFPs: DAFP-1, -2, -4, and -6; experiment: TH enhancement by exemplified enhancers for DAFPs; assay type: biochemical, Dendroides canadensis
# DAFP-1 = experiment: Antifreeze (TH) activity measurements by differential scanning calorimetry: enhancement of TH activity of DAFP-1; assay type: biochemical, Dendroides canadensis; settings: for enhancement ability for the TH activity of DAFP-1 (in words, relative) / molar enhancement effectiveness order: pH 7.5; for molar enhancement effectiveness order: FIG. 2 and FIG. 3
# Text: (§1) The pH of the final samples was 7.5.
# [2] = Solubility of enhancer in the TH test system; assay type: physicochemical
# Text: as §1
# [3] = molecular target: T1, Dendroides canadensis antifreeze protein DAFP-1 (SEQ. ID 1, amino acid 28 through amino acid 108); experiment: Size-exclusion HPLC (Hummel and Dreyer gel filtration method) of NADH binding to DAFP-1; settings: pH 7.00, ambient temperature, DAFP-1 1.5-20 μM, NADH 0-270 μM, nonlinear regression
# Method: The formation of 1:1 complex of DAFP-1 and NADH was further confirmed by HPLC analysis. With the gel filtration method of Hummel and Dreyer, the size exclusion column can be equilibrated with a buffer containing the ligand at a known concentration. The protein sample prepared in the buffer (containing the ligand at the same concentration) is injected into the equilibrated column. If binding occurs, the concentrations of the ligand in the elution buffer and in the elution are usually different. […] The bound ligand can be determined more precisely using the internal calibration method. […]
# The binding of NADH to DAFP-1 was characterized using HPLC by an improved gel filtration method of Hummel and Dreyer (Hummel and Dreyer, 1962; Parsons, 1980). […] The eluates were monitored at 220 nm. […] The initial concentrations of NADH were determined using the molar extinction coefficient (ε340=6.22×10^3M^−1cm^−1) (Dawson et al., 1985). […] The amount of bound NADH was determined by the internal calibration method (Parsons 1980; Sun and Hsiao, 1993). The amount of free NADH is obtained fromthe difference of total NADH and calculated bound NADH. […]
Molecule,"enhancement ability for the TH activity of DAFP-1 (in words, relative) (DAFP-1; DSC, DAFP-1 453 μM)","molar enhancement effectiveness order (DAFP-1; DSC, DAFP-1 453 μM)",other results
O=C[C@H](F)[C@@H](O)[C@H](O)[C@H](O)CO [2-fluoro-2-deoxy-D-glucose],–,–,increase of the TH activity of DAFPs [1]: 2 fold
O=c1[nH]c(=O)n([C@@H]2O[C@H](CO)[C@@H](O)[C@H]2O)cc1F [5-Fluorouridine],–,–,increase of the TH activity of DAFPs [1]: 2 fold
"Nc1ncnc2c1ncn2[C@@H]1O[C@H](COP(=O)(O)OP(=O)(O)O)[C@@H](O)[C@H]1O [ADP, adenosine 5′-diphosphate]",less than that of ADPR; also recorded: lower than that of AMP,–,–
"Nc1ncnc2c1ncn2[C@@H]1O[C@H](COP(=O)(O)OP(=O)(O)OC[C@H]2OC(O)[C@H](O)[C@@H]2O)[C@@H](O)[C@H]1O (stereo partly shown) [ADPR, adenosine 5′-diphosphoribose]",most efficient enhancement ability among these fragments,ADPR>AMP>adenosine>R5P>pyrophosphate>ribose,–
"Nc1ncnc2c1ncn2[C@@H]1O[C@H](COP(=O)(O)O)[C@@H](O)[C@H]1O [AMP, (−)-adenosine 5′-monophosphate]",–,ADPR>AMP>adenosine>R5P>pyrophosphate>ribose,–
Nc1ncnc2c1ncn2[C@@H]1O[C@H](COP(=O)(O)OP(=O)(O)OP(=O)(O)O)[C@@H](O)[C@H]1O [ATP],–,–,increase of the TH activity of DAFPs [1]: at least 5 fold
"CC(C)(COP(=O)(O)OP(=O)(O)OC[C@H]1O[C@@H](n2cnc3c(N)ncnc32)[C@H](O)[C@@H]1OP(=O)(O)O)[C@@H](O)C(=O)NCCC(=O)NCCS [CoA, coenzyme A]",less than those of NADH and NAD analogs,–,–
"Cc1cc2nc3c(=O)[nH]c(=O)nc-3n(C[C@H](O)[C@H](O)[C@H](O)COP(=O)(O)OP(=O)(O)OC[C@H]3O[C@@H](n4cnc5c(N)ncnc54)[C@H](O)[C@@H]3O)c2cc1C [FAD, flavin adenine dinucleotide]",less than those of NADH and NAD analogs,–,solubility (in words) [2]: limited by its solubility
"NC(=O)c1ccc[n+]([C@@H]2O[C@H](COP(=O)([O-])OP(=O)(O)OC[C@H]3O[C@@H](n4cnc5c(N)ncnc54)[C@H](O)[C@@H]3O)[C@@H](O)[C@H]2O)c1 [NAD, (3-nicotinamide adenine dinucleotide]","very similar to that of its reduced form, NADH, although slightly lower",NADH>NAD>TNAD>PAAD,–
"NC(=O)C1=CN([C@@H]2O[C@H](COP(=O)(O)OP(=O)(O)OC[C@H]3O[C@@H](n4cnc5c(N)ncnc54)[C@H](O)[C@@H]3O)[C@@H](O)[C@H]2O)C=CC1 [NADH, (3-nicotinamide adenine dinucleotide, reduced]",–,NADH>NAD>TNAD>PAAD,Kd [3]: 280 ± 20 nM
"NC(=O)C1=CN([C@@H]2O[C@H](COP(=O)(O)OP(=O)(O)OC[C@H]3O[C@@H](n4cnc5c(N)ncnc54)[C@H](OP(=O)(O)O)[C@@H]3O)[C@@H](O)[C@H]2O)C=CC1 [NADPH, (3-nicotinamide adenine dinucleotide phosphate, reduced]",most efficient enhancer; also recorded: much higher than any of the known enhancers,–,–
"Nc1ncnc2c1ncn2C1OC(COP(=O)(O)OP(=O)(O)OCC2OC([n+]3cccc(C=O)c3)C(O)C2O)C(O)C1O (stereo not shown) [PAAD, 3-pyridine aldehyde adenine dinucleotide]",very efficient enhancement ability; also recorded: least effective enhancer among the analogs,NADH>NAD>TNAD>PAAD,–
"O=C[C@H](O)[C@H](O)[C@H](O)COP(=O)(O)O [R5P, D-ribose-5-phosphate]",–,ADPR>AMP>adenosine>R5P>pyrophosphate>ribose,–
"NC(=S)c1ccc[n+]([C@@H]2O[C@H](COP(=O)([O-])OP(=O)(O)OC[C@H]3O[C@@H](n4cnc5c(N)ncnc54)[C@H](O)[C@@H]3O)[C@@H](O)[C@H]2O)c1 [TNAD, thionicotinamide adenine dinucleotide]",very efficient enhancement ability,NADH>NAD>TNAD>PAAD,–
Nc1ncnc2c1ncn2[C@@H]1O[C@H](CO)[C@@H](O)[C@H]1O [adenosine],–,ADPR>AMP>adenosine>R5P>pyrophosphate>ribose,enhancement ability for the TH activity of DAFP-1 at 0.080M (DAFP-1; enhancer 0.080M): lower than that of ADP; solubility (in words) ([2]; TH test system): low solubility
O=P(O)(O)OP(=O)(O)O [pyrophosphate],–,ADPR>AMP>adenosine>R5P>pyrophosphate>ribose,–
"O=C[C@H](O)[C@H](O)[C@H](O)CO [ribose, D-(−)-ribose]",least enhancement,ADPR>AMP>adenosine>R5P>pyrophosphate>ribose,–
"DAFP-1: Dendroides canadensis antifreeze protein, recombinantly expressed in E. coli; SEQ. ID 1 amino acids 28 through 108 (protein, listed as Dendroides canadensis, Dendroides canadensis antifreeze protein, recombinantly expressed in E. coli; ID 1 amino acids 28 through 108) TGGSDCRSCTVSCTDCQNCPNARTACTRSSNCINALTCTDSYDCHNAETCTRSTNCYKAKTCTGSTNCYEATACTDSTGCP",–,–,"TH activity of the protein sample alone (DAFP-1; DAFP-1 453 μM, no enhancer, DSC): 0.69±0.01 °C; TH activity of DAFP-1 as a function of pH (DAFP-1; pH 2 to pH 12): unchanged"

# — US10426159B1, “Highly efficient enhancers for antifreeze protein activity” (The Trustees of California State University, priority 2012, dated 2019)
